# Results: patent US10179782B2, “Substituted sulfonamide compounds” (Genentech, Inc., priority 2016, dated 2019)
# Target: T1, human TRPA1 (Homo sapiens, UniProt O75762)
# T1 construct: expressed in transfected cells; host or cells: CHO cells
# Assay: TRPA1 FLIPR Tetra calcium influx assay in CHO cells (block of cinnamaldehyde-induced calcium influx)
# Type: cell-based
# Conditions: Table 2; CHO cells expressing TRPA1; agonist cinnamaldehyde 75 uM; 20 min compound incubation; Hill coefficient fixed to 1.5; read-out: hTRPA1 CHO Ca2+ AUC EVO (IC50)
# In short: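 CHO cells expressing TRPA1 were loaded with calcium dye in HBSS/20 mM HEPES, pH 7.4, 0.02% BSA, then given compound for 20 min at room temperature before ~EC80 cinnamaldehyde (75 µM human, 45 µM rat). Block of calcium influx was read on FLIPR Tetra; IC50 fitted with Hill coefficient fixed at 1.5.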
# T1 sequence (O75762 whole entry): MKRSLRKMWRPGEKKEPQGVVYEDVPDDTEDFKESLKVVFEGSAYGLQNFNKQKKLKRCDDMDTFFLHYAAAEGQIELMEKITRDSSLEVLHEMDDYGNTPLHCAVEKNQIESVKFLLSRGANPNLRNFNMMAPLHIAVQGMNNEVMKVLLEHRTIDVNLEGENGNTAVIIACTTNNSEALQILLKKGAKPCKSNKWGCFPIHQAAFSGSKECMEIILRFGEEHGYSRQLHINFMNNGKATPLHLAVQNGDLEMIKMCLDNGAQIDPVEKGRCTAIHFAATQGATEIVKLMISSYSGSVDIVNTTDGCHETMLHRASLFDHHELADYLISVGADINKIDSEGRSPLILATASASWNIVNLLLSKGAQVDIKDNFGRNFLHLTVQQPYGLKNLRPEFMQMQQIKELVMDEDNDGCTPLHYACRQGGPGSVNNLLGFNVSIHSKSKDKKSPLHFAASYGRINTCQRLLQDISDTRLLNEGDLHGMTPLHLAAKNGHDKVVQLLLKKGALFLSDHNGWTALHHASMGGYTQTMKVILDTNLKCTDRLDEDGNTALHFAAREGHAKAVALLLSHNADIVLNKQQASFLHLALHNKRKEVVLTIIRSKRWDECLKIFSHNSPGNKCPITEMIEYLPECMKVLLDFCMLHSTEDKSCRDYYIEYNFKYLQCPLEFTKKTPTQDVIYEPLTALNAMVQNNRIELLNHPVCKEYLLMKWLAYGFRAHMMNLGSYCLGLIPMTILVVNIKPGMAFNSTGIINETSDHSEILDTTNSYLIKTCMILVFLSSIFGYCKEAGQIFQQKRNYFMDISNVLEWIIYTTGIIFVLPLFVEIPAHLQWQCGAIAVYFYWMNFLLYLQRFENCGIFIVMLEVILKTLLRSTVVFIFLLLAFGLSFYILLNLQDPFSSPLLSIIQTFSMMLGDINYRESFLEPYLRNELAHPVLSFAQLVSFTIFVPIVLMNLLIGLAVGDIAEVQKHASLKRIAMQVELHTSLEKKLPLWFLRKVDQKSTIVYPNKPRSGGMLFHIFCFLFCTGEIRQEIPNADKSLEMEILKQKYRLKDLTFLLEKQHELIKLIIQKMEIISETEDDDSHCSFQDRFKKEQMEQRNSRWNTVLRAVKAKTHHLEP
row,IC50 [nM],Structure (SMILES)
1,1.45,"C[C@H]1[C@H](F)C[C@@H](C(=O)NCc2cc(-c3cnc(C(F)(F)F)nc3)nc(C3CC3)c2)N1S(=O)(=O)c1ccc(F)cc1 [Example 121, (2S,4R,5S) N-[[2-cyclopropyl-6-[2-(trifluoromethyl)pyrimidin-5-yl]-4-pyridyl]methyl]-4-fluoro-1-(4-fluorophenyl)sulfonyl-5-methyl-pyrrolidine-2-carboxamide]"
2,5.51,"C[C@H]1[C@H](F)C[C@@H](C(=O)NCc2cc(-c3cnc(C(F)(F)F)nc3)ncc2OCC(F)(F)F)N1S(=O)(=O)c1ccc(F)cc1 [Example 122, (2S,4R,5S)-4-fluoro-1-(4-fluorophenylsulfonyl)-5-methyl-N-((5-(2,2,2-trifluoroethoxy)-2-(2-(trifluoromethyl)pyrimidin-5-yl)pyridin-4-yl)methyl)pyrrolidine-2-carboxamide]"
3,10.8,"C[C@H]1[C@H](F)C[C@@H](C(=O)NCc2cc(C(F)(F)F)nc(C3CC3)c2F)N1S(=O)(=O)c1ccc(F)cc1 [Example 123, (2S,4R,5S)-N-[[2-cyclopropyl-3-fluoro-6-(trifluoromethyl)-4-pyridyl]methyl]-4-fluoro-1-(4-fluorophenyl)sulfonyl-5-methyl-pyrrolidine-2-carboxamide]"
4,2.3,"C[C@H]1[C@H](F)C[C@@H](C(=O)NCc2cc(-c3cnc(C(F)(F)F)nc3)nc(OCC(F)(F)F)n2)N1S(=O)(=O)c1ccc(F)cc1 [Example 124, (2S,4R,5S)-4-fluoro-1-(4-fluorophenyl)sulfonyl-5-methyl-N-[[2-(2,2,2-trifluoroethoxy)-6-[2-(trifluoromethyl)pyrimidin-5-yl]pyrimidin-4-yl]methyl]pyrrolidine-2-carboxamide]"
5,4.9,"C[C@H]1[C@H](F)C[C@@H](C(=O)NCc2cc(-c3cnc(C(F)(F)F)nc3)ncc2C2CC2)N1S(=O)(=O)c1ccc(F)cc1 [Example 125, (2S,4R,5S)-N-[[5-cyclopropyl-2-[2-(trifluoromethyl)pyrimidin-5-yl]-4-pyridyl]methyl]-4-fluoro-1-(4-fluorophenyl)sulfonyl-5-methyl-pyrrolidine-2-carboxamide]"
6,12.8,"COc1nc(CNC(=O)[C@@H]2C[C@@H](F)[C@H](C)N2S(=O)(=O)c2ccc(F)cc2)cc(-c2cnc(C(F)(F)F)nc2)n1 [Example 126, (2S,4R,5S)-4-fluoro-1-(4-fluorophenyl)sulfonyl-N-[[2-methoxy-6-[2-(trifluoromethyl)pyrimidin-5-yl]pyrimidin-4-yl]methyl]-5-methyl-pyrrolidine-2-carboxamide]"
7,4.27,"C[C@H]1[C@H](F)C[C@@H](C(=O)NCc2cc([C@H]3C[C@@H](OC(F)(F)F)C3)ncc2F)N1S(=O)(=O)c1ccc(F)cc1 [Example 127, (2S,4R,5S)-4-fluoro-1-(4-fluorophenyl)sulfonyl-N-[[5-fluoro-2-[3-(trifluoromethoxy)cyclobutyl]-4-pyridyl]methyl]-5-methyl-pyrrolidine-2-carboxamide]"
8,18.2,"C[C@H]1[C@H](F)C[C@@H](C(=O)NCc2cc(-c3cc(C(F)(F)F)nn3C)ncc2F)N1S(=O)(=O)c1ccc(F)cc1 [Example 128, (2S,4R,5S)-4-fluoro-N-[[5-fluoro-2-[2-methyl-5-(trifluoromethyl)pyrazol-3-yl]-4-pyridyl]methyl]-1-(4-fluorophenyl)sulfonyl-5-methyl-pyrrolidine-2-carboxamide]"
9,4.14,"C[C@H]1[C@H](F)C[C@@H](C(=O)NCc2cc(-c3cnc(C(F)(F)F)s3)ncc2C#N)N1S(=O)(=O)c1ccc(F)cc1 [Example 129, (2S,4R,5S)—N-((5-cyano-2-(2-(trifluoromethyl)thiazol-5-yl)pyridin-4-yl)methyl)-4-fluoro-1-((4-fluorophenyl)sulfonyl)-5-methylpyrrolidine-2-carboxamide]"
